How the values were obtained:
[1] = design: species or system mice; details: mouse, in vivo
Protocol: Male C57BL/6J (12 weeks old) mice were used to measure the absorption and metabolism of FuFA. In this procedure, I1D3 (50 mg/kg), I 1U3 (50 mg/kg), I1U3-2M (50 mg/kg) and D31-palmitic acid (10 mg/kg) were administered simultaneously (cassette dosing) to single animal. Consequently, the relative pharmacokinetics of multiple compounds can be assessed rapidly with a small number of experimental animals. The compounds were injected either intraperitoneally (n=5) or by gavage (n=5). At 1, 2 and 4h after injection, a small incision on the tail vein was performed and microhematocrit capillary tubes (FisherBrand, #22-362566) were used to collect serial blood samples ([…] per collection). At 6h, mice were anesthetized, and blood was collected from the vena cava in a terminal blood draw. Blood samples were processed as described above to collect plasma. The pharmacokinetics (PK) of free FuFAs and D31-palmitic acid and their esters found in complex lipids were evaluated using 10 μl of plasma. Briefly, 20 μl of water were added to the […] of plasma and divided into 2 glass tubes. The sample in one tube was measured as is using GC-MS upon derivatization and the other sample was hydrolyzed before derivatization and quantification. […] For the total FA quantification, basic hydrolysis was performed using 500 μl of 1M KOH in MeOH and incubated for 1 h at 60° C. […]

liver of HFD mice = assay: Untargeted/targeted metabolomic mass spectrometry of liver (sphingolipids, acylcarnitine); type: in vivo
Protocol: Liver powder (50 mg) was resuspended in 500 μL of H2O and extracted using ethyl acetate (1 mL). Phases were separated by centrifugation for 5 min at 1500 g at 4° C. and the organic phase was collected and dried under nitrogen gas. For acetonitrile precipitation, 200 μL of ice-cold ACN was added to liver tissue homogenized in water and vortexed thoroughly. Samples were centrifuged for 5 min at 1500 g at 4° C. and all the phases were removed and dried under nitrogen gas. Dried samples were reconstituted with McOH and transferred to clean mass spectrometry vials for analysis.
Mass spectrometry data was collected using a Q Exactive Orbitrap (ThermoFisher Scientific) to obtain high-resolution accurate mass data in positive and negative ion modes. Two different Chromatography system were used: The organic phase from Bligh and Dyer extraction sample was performed using a 100×2 mm Luna® 5 μm C18(2) column (phenomenex,00D-4252-BO) with a 0-100% gradient of solvent B (90:10 isopropyl alcohol, ACS reagent for HPLC (Honeywell #AH323):ACN, 0.1% formic acid, reagent grade (Sigma #F0507) and solvent A (70:30 Water, Optima™ LC/MS Grade (Fisher #W6500):acetonitrile, 0.1% formic acid) over 20 min, followed by 100% solvent B for 6 min before a return to 0% solvent B for 4 min at a flow rate of 0.650 mL/min. Chromatography for aqueous Bligh and Dyer phase and acetonitrile precipitation extract was performed using the same column with a gradient of 10-100% solvent D (ACN, 0.1% formic acid) and solvent C (water, 0.1% formic acid) over 18 min, followed by 100% solvent D for 6 min before returning to 10% solvent D for 6 min at a flow rate of 0.650 mL/minute. […]
Ceramide and carnitine conjugates were extracted in the presence of ceramide standard (18:1/17:0) (N-heptadecanoyl-D-erythro-sphingosine, Avanti Polar Lipids #860517) using ethyl acetate and quantified using mass spectrometry.
Mass spectrometry data was collected using an API 5000 LC/MS/MS in positive ion mode. […] Quantitation of analyte and internal standard peak areas was determined using the Quantitation Wizard in Sciex's Analyst® Software.

absorption pathway [1]: absorbed through the hepatic portal vein
oral stability (half-lives) compared with natural FuFAs ([1]; po, 50 mg/kg): longer half-lives
SMILES: CCCc1ccc(CCCCCCCCCC(C)(C)C(=O)O)o1 [11U3-2M, 2,2-Dimethyl-11-(5-propylfuran-2-yl)undecanoic acid]
liver metabolites changed by HFD (untargeted metabolomics) (liver of HFD mice; 50 mg/kg): returned the liver to its basal condition
liver sphingomyelins SM(18:1/16:0), SM(18:1/20:0), SM(18:1/24:0) vs HFD+veh (liver of HFD mice; effect relative to that on ceramides): analogous
liver ceramides (e.g. Cer(18:1/16:0), Cer(18:1/20:0), total ceramide) vs HFD+veh (liver of HFD mice; targeted quantification): significant reduction

Reference: patent US20250361217A1, “FATTY ACID COMPOUNDS” (University of Pittsburgh - Of the Commonwealth System of …, priority 2022, published 2025)
